Results taken from ChEMBL document CHEMBL1139684, “Potent benzimidazolone based human beta(3)-adrenergic receptor agonists” (Bioorg Med Chem Lett, 2006).

What was measured:
[1] = biological target: T1, Beta-3 adrenergic receptor (Homo sapiens, UniProt P13945); experiment: Agonist activity at human beta-3 adrenergic receptor expressed in CHO cells assessed as cAMP levels at 100 nM relative to isoproterenol; format: functional, cell-based
Target sequence in this assay (P13945 whole entry, looked up): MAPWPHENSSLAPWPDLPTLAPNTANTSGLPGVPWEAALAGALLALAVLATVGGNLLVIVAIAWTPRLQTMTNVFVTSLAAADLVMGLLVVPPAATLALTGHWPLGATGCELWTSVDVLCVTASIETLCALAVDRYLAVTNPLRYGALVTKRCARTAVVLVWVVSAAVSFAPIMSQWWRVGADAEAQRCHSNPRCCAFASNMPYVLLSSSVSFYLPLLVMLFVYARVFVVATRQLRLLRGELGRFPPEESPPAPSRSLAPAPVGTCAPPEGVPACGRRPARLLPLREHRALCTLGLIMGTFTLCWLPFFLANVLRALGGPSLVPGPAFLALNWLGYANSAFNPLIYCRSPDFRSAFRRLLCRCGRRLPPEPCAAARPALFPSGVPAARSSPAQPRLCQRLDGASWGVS

Rattus norvegicus [2] = organism: Rattus norvegicus; experiment: Increase in heart rate in rat at 0.01 mM; format: functional
[3] = biological target: Beta-1 adrenergic receptor (Homo sapiens, UniProt P08588); experiment: Agonist activity at human beta-1 adrenergic receptor expressed in CHO cells assessed as cAMP levels; format: functional, cell-based
Chain of Beta-1 adrenergic receptor (P08588 whole entry): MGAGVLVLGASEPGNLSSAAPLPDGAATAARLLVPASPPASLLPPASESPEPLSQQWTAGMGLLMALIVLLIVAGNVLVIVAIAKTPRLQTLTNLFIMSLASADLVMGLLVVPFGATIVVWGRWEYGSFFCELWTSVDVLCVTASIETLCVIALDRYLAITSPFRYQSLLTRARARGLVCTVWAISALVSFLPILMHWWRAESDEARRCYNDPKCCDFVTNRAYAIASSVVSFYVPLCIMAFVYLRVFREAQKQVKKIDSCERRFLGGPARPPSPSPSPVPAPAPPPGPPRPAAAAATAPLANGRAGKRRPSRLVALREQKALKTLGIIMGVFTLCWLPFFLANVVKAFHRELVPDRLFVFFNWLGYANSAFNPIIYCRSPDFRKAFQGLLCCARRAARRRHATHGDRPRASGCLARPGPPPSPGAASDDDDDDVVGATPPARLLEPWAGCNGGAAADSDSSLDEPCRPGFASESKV

[4] = biological target: T1, Beta-3 adrenergic receptor; experiment: Agonist activity at human beta3 adrenergic receptor expressed in CHO cells assessed as cAMP levels; format: functional, cell-based
Target sequence in this assay (P13945 whole entry): as the sequence (P13945 whole entry, looked up) above

[5] = biological target: T1, Beta-3 adrenergic receptor; experiment: Agonist activity at human beta-3 adrenergic receptor expressed in CHO cells assessed as cAMP levels relative to isoproterenol; format: functional, cell-based; conditions: filed as agonist
Target sequence in this assay (P13945 whole entry, looked up): as above

[6] = biological target: Beta-2 adrenergic receptor (Homo sapiens, UniProt P07550); experiment: Agonist activity at human beta-2 adrenergic receptor expressed in CHO cells assessed as cAMP levels; format: functional, cell-based
Chain of Beta-2 adrenergic receptor (P07550 whole entry): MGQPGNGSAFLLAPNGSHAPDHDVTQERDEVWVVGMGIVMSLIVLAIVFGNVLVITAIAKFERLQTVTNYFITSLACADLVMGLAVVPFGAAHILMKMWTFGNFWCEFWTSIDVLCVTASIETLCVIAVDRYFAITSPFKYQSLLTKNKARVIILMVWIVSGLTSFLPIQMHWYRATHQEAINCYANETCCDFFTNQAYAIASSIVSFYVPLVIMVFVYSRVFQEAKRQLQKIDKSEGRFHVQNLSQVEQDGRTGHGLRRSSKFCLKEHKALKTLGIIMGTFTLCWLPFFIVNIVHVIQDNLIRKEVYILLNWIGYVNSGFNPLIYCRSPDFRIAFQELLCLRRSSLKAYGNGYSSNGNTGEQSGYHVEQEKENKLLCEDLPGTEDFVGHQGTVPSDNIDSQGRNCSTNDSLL

[7] = biological target: Beta-3 adrenergic receptor (Rattus norvegicus, UniProt P26255); experiment: Agonist activity at rat beta-3 adrenergic receptor expressed in CHO cells assessed as cAMP levels; format: functional, cell-based
Chain of Beta-3 adrenergic receptor (Rattus norvegicus, UniProt P26255) (P26255 whole entry): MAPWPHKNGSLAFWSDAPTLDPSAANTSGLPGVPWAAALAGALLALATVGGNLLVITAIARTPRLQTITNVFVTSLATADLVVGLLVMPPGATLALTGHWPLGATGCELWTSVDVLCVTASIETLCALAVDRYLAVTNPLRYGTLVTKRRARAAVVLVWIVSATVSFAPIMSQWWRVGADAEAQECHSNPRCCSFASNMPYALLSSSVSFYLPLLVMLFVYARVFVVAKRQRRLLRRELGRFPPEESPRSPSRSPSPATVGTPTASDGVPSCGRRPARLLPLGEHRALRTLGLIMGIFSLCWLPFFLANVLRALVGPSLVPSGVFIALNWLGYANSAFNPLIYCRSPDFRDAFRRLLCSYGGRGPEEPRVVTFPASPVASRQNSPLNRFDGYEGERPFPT

[8] = biological target: Beta-3 adrenergic receptor (Rattus norvegicus) (UniProt P26255); experiment: Agonist activity at rat beta-3 adrenergic receptor expressed in CHO cells assessed as cAMP levels relative to isoproterenol; format: functional, cell-based; conditions: filed as agonist
Chain of Beta-3 adrenergic receptor (Rattus norvegicus) (P26255 whole entry): as above

Rattus norvegicus [9] = experiment: Increase in energy expenditure in DIO Long-Evans rat at 10 mg/kg, po after 20 hrs relative to control; format: functional
[10] = AUC (0-6h) in DIO Long-Evans rat at 10 mg/kg, po; format: ADME, organism-based; design: time < 6 hr, dose 10 mg/kg, route oral; conditions: plasma
Rattus norvegicus [11] = experiment: Reduction in respiratory quotient in DIO Long-Evans rat at 10 mg/kg, po after 20 hrs relative to control; format: functional; design: scale not given: the % may be the effect or the level left

| Structure (SMILES) | Activity ([1]; filed as agonist) [%] | Activity (Rattus norvegicus [2]) [%] | EC50 [3] | EC50 [4] | Emax [5] [%] | Activity [1] [%] | also measured |
| --- | --- | --- | --- | --- | --- | --- | --- |
| CC(Cc1ccc(Oc2ccc(C(=O)O)cc2)cc1)NC[C@H](O)COc1cccc2[nH]c(=O)[nH]c12 (stereo not given in full) | 99 |  |  |  |  |  |  |
| CC(Cc1ccc(Oc2ccc(C(N)=O)cn2)cc1)NC[C@H](O)COc1cccc2[nH]c(=O)[nH]c12 (stereo not given in full) | 97 |  |  |  |  |  |  |
| CC(C)(Cc1ccc(Oc2ccc(C(N)=O)cn2)cc1)NC[C@H](O)COc1cccc2[nH]c(=O)n(CCC3CCCC3)c12 |  | 9.9 | > 10 µM | 0.0117 µM (agonist) | 63.7 |  |  |
| CC(Cc1ccc(Oc2ccc(C(=O)O)cc2)cc1)NC[C@H](O)COc1cccc2[nH]c(=O)n(C)c12 (stereo not given in full) | 84 |  |  |  |  |  |  |
| CC(Cc1ccc(Oc2ccc(C#N)cn2)cc1)NC[C@H](O)COc1cccc2[nH]c(=O)[nH]c12 (stereo not given in full) | 88 |  |  |  |  |  |  |
| CCCn1c(=O)[nH]c2cccc(OC[C@@H](O)CNC(C)(C)Cc3ccc(Oc4ccc(C(N)=O)cn4)cc3)c21 |  | 19.9 | > 10 µM | 0.0052 µM (agonist) | 73.9 |  | EC50 [6]: > 10 µM |
| CC(Cc1ccc(Oc2ccc(C#N)cn2)cc1)NC[C@H](O)COc1cccc2c1[nH]c(=O)n2C (stereo not given in full) |  |  |  |  |  | 29 |  |
| CC(Cc1ccc(Oc2ccc(C(N)=O)cn2)cc1)NC[C@H](O)COc1cccc2c1[nH]c(=O)n2C (stereo not given in full) |  |  |  |  |  | 33 |  |
| CC(Cc1ccc(Oc2ccc(C(N)=O)cn2)cc1)NC[C@H](O)COc1cccc2[nH]c(=O)n(C)c12 (stereo not given in full) | 87 |  |  |  |  |  |  |
| CC(Cc1ccc(Oc2ccc(C(=O)O)cc2)cc1)NC[C@H](O)COc1cccc2c1[nH]c(=O)n2C (stereo not given in full) |  |  |  |  |  | 30 |  |
| CC(Cc1ccc(Oc2ccc(C(N)=O)cn2)cc1)NC[C@H](O)COc1cccc2c1n(C)c(=O)n2C (stereo not given in full) |  |  |  |  |  | 25 |  |
| CC(C)(Cc1ccc(Oc2ccc(C(N)=O)cn2)cc1)NC[C@H](O)COc1cccc2[nH]c(=O)n(CCC3CC3)c12 |  | 8.9 | > 10 µM | 0.0054 µM (agonist) | 67.9 |  | EC50 [7]: 0.0068 µM (agonist); Emax [8]: 42.7%; EC50 [6]: > 10 µM |
| CC(Cc1ccc(Oc2ccc(C#N)cn2)cc1)NC[C@H](O)COc1cccc2c1n(C)c(=O)n2C (stereo not given in full) |  |  |  |  |  | 11 |  |
| CC(Cc1ccc(Oc2ccc(C(=O)O)cc2)cc1)NC[C@H](O)COc1cccc2c1n(C)c(=O)n2C (stereo not given in full) |  |  |  |  |  | 28 |  |
| CC(C)(Cc1ccc(Oc2ccc(C(N)=O)cn2)cc1)NC[C@H](O)COc1cccc2[nH]c(=O)n(CCC3CCC3)c12 |  | 6.5 | > 10 µM | 0.0101 µM (agonist) | 58.2 |  | EC50 [7]: 0.0287 µM (agonist); Emax [8]: 49.6%; Activity (Rattus norvegicus [9]): 18%; AUC(0-t) at 6 h [10]: 112 ng·h/mL; EC50 [6]: > 10 µM; Activity (Rattus norvegicus [11]): 29% |
| CCn1c(=O)[nH]c2cccc(OC[C@@H](O)CNC(C)(C)Cc3ccc(Oc4ccc(C(N)=O)cn4)cc3)c21 |  | 20.8 | > 10 µM | 0.0052 µM (agonist) | 65.1 |  | EC50 [6]: > 10 µM |
| CC(Cc1ccc(Oc2ccc(C#N)cn2)cc1)NC[C@H](O)COc1cccc2[nH]c(=O)n(C)c12 (stereo not given in full) | 83 |  |  |  |  |  |  |
| Cn1c(=O)[nH]c2cccc(OC[C@@H](O)CNC(C)(C)Cc3ccc(Oc4ccc(C(N)=O)cn4)cc3)c21 |  | 17.7 | 0.0087 µM (agonist) | 0.0071 µM (agonist) | 79.7 |  | EC50 [7]: 0.0245 µM (agonist); Emax [8]: 59.6%; EC50 [6]: > 10 µM |
